The source of these data is the supplement of paper PMC11208160.
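Note: IS621 bridge recombinase in Escherichia coli cells against a fixed T5 target plasmid.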

A short description of the series: recombinant UMI read abundance after kanamycin selection (control-corrected) (log10(CPM+1)); higher = more efficient recombination; extreme values may be limits of the assay; sequences stand for … in AGTGCAGAGAAAATCGGCCAGTTTTCTCTGCCTGCAGTCCGCATGCCGTGGGACCCCTTGGGTTCTAACCTGTTGCCTAGATTTATGCAGCGGACTGCCTTTCTCCCAAAGTGATAAACCGG…AGGTTGGTTTCACT; site = the 11-nt donor. The method in brief: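 Counts of recombinant UMIs were reported as log10(CPM+1). Before that, they were converted to CPM, averaged over replicates and scaled using control-derived factors. They came from PCR across the donor–target junction after Escherichia coli carrying the pair library and target plasmid was plated on IPTG (0.07 mM) plus kanamycin, or unselected, in two replicates each.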
As for “GCAGGTACATGGACCGGTTTTCCCGGTAATCCGTATTTGAC (site GAAGGTACTGT)”, the “recombinant UMI read abundance (log10)” value was 0.00935.

Consider “GCAGGTACATGGACCGGTTTTCCCGGTAATCCGTATTTGAC (site GCAGGTACTGT)”, for which the “recombinant UMI read abundance (log10)” value came out at 1.91.

On to “GCAGGTACATGGACCGGTTTTCCCGGTAATCCGTATTTGAC (site GGAGGTACTGT)”, for which the “recombinant UMI read abundance (log10)” value was found to be 0.

Turning to “GCAGGTACATGGACCGGTTTTCCCGGTAATCCGTATTTGAC (site GTAGGTACTGT)”, the “recombinant UMI read abundance (log10)” value turned out to be 2.1.

For “GCAGTAACATGGACCGGTTTTCCCGGTAATCCGTATTTGCA (site ACAGTATCTTG)”, the “recombinant UMI read abundance (log10)” value is 0.498.

“GCAGTAACATGGACCGGTTTTCCCGGTAATCCGTATTTGCA (site GCAGTAACTTG)”: the “recombinant UMI read abundance (log10)” value amounted to 2.83.

For the sequence “GCAGTCCCATGGACCGGTTTTCCCGGTAATCCGTATTTGCC (site GCAGTCCCTGG)”, the “recombinant UMI read abundance (log10)” value was found to be 0.

“GCAGTCGCATGGACCGGTTTTCCCGGTAATCCGTATTTGCG (site GAAGTCGCTCG)”: the “recombinant UMI read abundance (log10)” value stood at 0.00976.

Take “GCAGTCGCATGGACCGGTTTTCCCGGTAATCCGTATTTGCG (site GCAGTCGCTCG)”: the “recombinant UMI read abundance (log10)” value came out at 0.764.

In the case of “GCAGTCGCATGGACCGGTTTTCCCGGTAATCCGTATTTGCG (site GGAGTCGCTCG)”, the “recombinant UMI read abundance (log10)” value came out at 0.00641.

Turning to “GCAGTCGCATGGACCGGTTTTCCCGGTAATCCGTATTTGCG (site GTAGTCGCTCG)”, the “recombinant UMI read abundance (log10)” value stood at 0.0117.

As to “GCAGTCTCATGGACCGGTTTTCCCGGTAATCCGTATTTGCA (site ACAGTATCTTG)”, the “recombinant UMI read abundance (log10)” value came out at 2.38.

With “GCAGTCTCATGGACCGGTTTTCCCGGTAATCCGTATTTGCA (site GCAGTCTCTTG)”, the “recombinant UMI read abundance (log10)” value came to 2.87.

For “GCATATCCATGGACCGGTTTTCCCGGTAATCCGTATTTGAC (site GCATATCCTGT)”, the “recombinant UMI read abundance (log10)” value was found to be 1.39.

For the sequence “GCATCGGCATGGACCGGTTTTCCCGGTAATCCGTATTTGCC (site GCATCGGCTGG)”, the “recombinant UMI read abundance (log10)” value came out at 0.599.

In the case of “GCCAACTCATGGACCGGTTTTCCCGGTAATCCGTATTTGCG (site GCCAACTCTCG)”, the “recombinant UMI read abundance (log10)” value was determined as 1.98.

As for “GCCAATTCATGGACCGGTTTTCCCGGTAATCCGTATTTGGG (site GCCAATTCTCC)”, the “recombinant UMI read abundance (log10)” value was 0.183.

For “GCCACAGCATGGACCGGTTTTCCCGGTAATCCGTATTTGCT (site GCCACAGCTAG)”, the “recombinant UMI read abundance (log10)” value was determined as 1.2.

On to “GCCACGCCATGGACCGGTTTTCCCGGTAATCCGTATTTGTA (site ACCACGCCTTA)”, for which the “recombinant UMI read abundance (log10)” value is 0.145.

Take “GCCACGCCATGGACCGGTTTTCCCGGTAATCCGTATTTGTA (site CCCACGCCTTA)”: the “recombinant UMI read abundance (log10)” value worked out at 0.0175.

“GCCACGCCATGGACCGGTTTTCCCGGTAATCCGTATTTGTA (site GACACGCCTTA)”: the “recombinant UMI read abundance (log10)” value stood at 0.0176.

Take “GCCACGCCATGGACCGGTTTTCCCGGTAATCCGTATTTGTA (site GCAACGCCTTA)”: the “recombinant UMI read abundance (log10)” value was 0.

“GCCACGCCATGGACCGGTTTTCCCGGTAATCCGTATTTGTA (site GCCAAGCCTTA)”: the “recombinant UMI read abundance (log10)” value was 0.00579.

In the case of “GCCACGCCATGGACCGGTTTTCCCGGTAATCCGTATTTGTA (site GCCACACCTTA)”, the “recombinant UMI read abundance (log10)” value was 0.00375.

For the sequence “GCCACGCCATGGACCGGTTTTCCCGGTAATCCGTATTTGTA (site GCCACCCCTTA)”, the “recombinant UMI read abundance (log10)” value came to 0.0213.

Take “GCCACGCCATGGACCGGTTTTCCCGGTAATCCGTATTTGTA (site GCCACGACTTA)”: the “recombinant UMI read abundance (log10)” value is 0.00736.

Turning to “GCCACGCCATGGACCGGTTTTCCCGGTAATCCGTATTTGTA (site GCCACGCCTAA)”, the “recombinant UMI read abundance (log10)” value was found to be 0.0376.

Take “GCCACGCCATGGACCGGTTTTCCCGGTAATCCGTATTTGTA (site GCCACGCCTCA)”: the “recombinant UMI read abundance (log10)” value came to 0.00817.

As for “GCCACGCCATGGACCGGTTTTCCCGGTAATCCGTATTTGTA (site GCCACGCCTGA)”, the “recombinant UMI read abundance (log10)” value was determined as 0.
